Source: PMC7319089, “Multi-Component Comparative Pharmacokinetics in Rats After Oral Administration of Fructus aurantii Extract, Naringin, Neohesperidin, and Naringin-Neohesperidin” (Frontiers in Pharmacology, 2020)
Read-outs that look alike come from different tables or passages of the source.

Key:
[1] = Pharmacokinetics in SD rats after oral administration of FA extract, NA, NHE or NA-NHE (UPLC-MS/MS of plasma, DAS 3.1); type: in vivo, Sprague-Dawley (SD) rats; conditions: for AUC(0-t): read-out: AUC(0-t); for Shape of the plasma concentration-time profile: oral administration, naringin and neohesperidin determined as naringenin and hesperetin; for MRT last: read-out: MRT(0-t); for MRT inf: read-out: MRT(0-∞); for Vd/F: read-out: Vz/F; for Cmax: plasma after β-glucuronidase/sulfatase hydrolysis
Experimental: The 20 μl of β-glucuronidase and 15 μl of sulfatase were added into 50 μl of plasma sample. After vortexed for 30 s, the mixture was incubated at 37°C for 2 h in a water bath, then placed in ice water for 5 min to terminate the reaction ([Xu et al., 2019]). IS solution (20 µl, 5 μg/ml) and acetonitrile (1.0 ml) were added into the mixture and vortexed for 2 min. […] Rats were randomly divided into the following four groups (6 rats in each group): naringin (NA), neohesperidin (NHE), naringin-neohesperidin (NA-NHE), and FA extract group. The oral administration doses were selected according to the literatures ([Tong et al., 2012]; [Yang et al., 2012]; [Committee of National Pharmacopoeia of RP China, 2015]; [Wang et al., 2018]; [Zhang et al., 2018]; [Chen et al., 2019]), the contents of the five components in FA, and the preliminary experiments. The specific doses were as follows: […] The rats had free access to water during the experiment. The blood samples were then immediately centrifuged at 4,000 rpm for 10 min. The plasma was frozen and stored at −80°C until analysis. The plasma concentration of the studied compounds was determined according to the daily calibration curve.

[2] = set-up: method as in Wang et al., 2018; conditions: after orally administering 30 g/kg FA decoction; ref Wang et al., 2018; cited from earlier work
[3] = Stability of the analytes in rat plasma (QC samples); type: in vitro ADME; conditions: n = 6; for Long-term Stability RE: -20 °C for one month; for Short-term Stability RE: room temperature 24 h; for Free–thaw Stability RE: three cycles -20 °C/room temperature
Experimental: The QC samples were assayed under several different conditions to evaluate the stability of the compounds in rat plasma. For the short-term stability, fresh plasma samples were kept at room temperature for 24 h before the sample preparation. After keeping the samples at room temperature for 24 h, post-preparation stability was tested. Freeze-thaw cycles (-20 °C/room temperature) stability were […] treated at -20°C for freezing-room temperature melting three times (repeated freezing and thawing three times). In each freeze-thaw cycle, the samples were frozen and stored at -20 °C for 24 h, and subsequently thawed at room. To evaluate the long-term stability of QC plasma samples, following storage at -20 °C for one month. The stability data were acceptable when the bias was within ±15% of the actual value ([Yuan et al., 2017]).

[4] = male SD rats, oral FA extract 10.8 g/kg of the original medicinal material, two-compartment model parameters, n = 6
[5] = male, Sprague-Dawley, rat, plasma, po, 10.8 g/kg, male SD rats, oral FA extract 10.8 g/kg of the original medicinal material, two-compartment model parameters, n = 6
[6] = male, Sprague-Dawley, rat, plasma, po, 10.8 g/kg, male SD rats, oral FA extract 10.8 g/kg of the original medicinal material, two-compartment model parameters, n = 6, read-out: CL/F (converted)
[7] = male, Sprague-Dawley, rat, plasma, po, 10.8 g/kg, male SD rats, oral FA extract 10.8 g/kg of the original medicinal material, two-compartment model parameters, n = 6, read-out: t1/2β (converted)
[8] = Sprague-Dawley, rat, plasma, male SD rats, oral FA extract 10.8 g/kg of the original medicinal material, statistical moment parameters, n = 6
[9] = Sprague-Dawley, rat, male SD rats, oral FA extract 10.8 g/kg of the original medicinal material, statistical moment parameters, n = 6
[10] = male, Sprague-Dawley, rat, plasma, po, 10.8 g/kg, male SD rats, oral FA extract 10.8 g/kg of the original medicinal material, statistical moment parameters, n = 6
[11] = male, Sprague-Dawley, rat, plasma, po, 10.8 g/kg, male SD rats, oral FA extract 10.8 g/kg of the original medicinal material, statistical moment parameters, n = 6, read-out: CLz/F (converted)
[12] = male, Sprague-Dawley, rat, plasma, po, 10.8 g/kg, male SD rats, oral FA extract 10.8 g/kg of the original medicinal material, statistical moment parameters, n = 6, read-out: Tmax
[13] = male, Sprague-Dawley, rat, plasma, po, 10.8 g/kg, male SD rats, oral FA extract 10.8 g/kg of the original medicinal material, statistical moment parameters, n = 6, read-out: t1/2z (converted)
[14] = high QC concentration (3880 / 2946 / 2470 / 836 / 422.4 ng/mL)
[15] = low QC concentration (3.88 / 2.946 / 2.47 / 0.836 / 0.4224 ng/mL)
[16] = middle QC concentration (77.6 / 58.92 / 49.4 / 16.72 / 8.44 ng/mL)
[17] = male SD rats, oral FA extract 10.8 g/kg of the original medicinal material, statistical moment parameters, n = 6

Structure (SMILES)	V1/F [1, 4]	AUC(0-inf) [1, 5]	AUC(0-t) [1, 5]	CL/F [1, 6]	half-life [1, 7]	MRT last [1, 8]	MRT inf [1, 8]	Vd/F [1, 8]	Cmax [1, 9]	Ka [1, 4]	t1/2α [1, 4]	AUC(0-inf) [1, 10]	AUC(0-t) [1, 10]	CL/F [1, 11]	Tmax [1, 12]	half-life [1, 13]	Long-term Stability RE [3, 14]	Long-term Stability RE [3, 15]	Long-term Stability RE [3, 16]	Short-term Stability RE [3, 14]	also measured
C[C@@H]1O[C@@H](O[C@H]2[C@H](Oc3cc(O)c4c(c3)O[C@H](c3ccc(O)cc3)CC4=O)O[C@H](CO)[C@@H](O)[C@@H]2O)[C@H](O)[C@H](O)[C@H]1O [NA, naringin]	0.82 ± 0.06 L/kg	20900 ± 3010 ng·h/mL	20700 ± 3010 ng·h/mL	13.8 mL/min/kg	2.65 ± 0.18 h	–	–	–	–	–	–	–	–	–	–	–	–	–	–	–	Shape of the plasma concentration-time profile ([1]; rats): Double-peak phenomenon; Detection in rat plasma [2]: could not been detected
COc1ccc2ccc(=O)oc2c1CC(O)C(C)(C)O (centres unmarked) [Meranzin hydrate, meranzin hydrate]	4.30 ± 1.14 L/kg	12300 ± 2590 ng·h/mL	12100 ± 2760 ng·h/mL	7.5 mL/min/kg	6.91 ± 1.05 h	5.17 ± 0.34 h	6.57 ± 0.95 h	9.36 ± 3.56 L/kg	3360 ± 91 ng/mL	2.05 ± 0.46 h⁻¹	6.61 ± 0.86 h	11600 ± 2760 ng·h/mL	11100 ± 2820 ng·h/mL	16.2 mL/min/kg	~1 h	> 6.5 h	6.85%	7.62%	3.19%	7.43%	Short-term Stability RE [3, 15]: 4.71%; Short-term Stability RE [3, 16]: 1.55%; Free–thaw Stability RE [3, 14]: 7.63%; Free–thaw Stability RE [3, 15]: 5.77%; Free–thaw Stability RE [3, 16]: 0.71%
COc1ccc(-c2cc(=O)c3c(OC)c(OC)c(OC)c(OC)c3o2)cc1OC [Nobiletin, nobiletin]	6.80 ± 1.24 L/kg	473 ± 63.1 ng·h/mL	472 ± 62.6 ng·h/mL	134 mL/min/kg	4.49 ± 0.57 h	4.23 ± 0.5 h	4.8 ± 0.99 h	151 ± 47 L/kg	130 ± 4.78 ng/mL	0.69 ± 0.25 h⁻¹	4.40 ± 0.34 h	480 ± 117 ng·h/mL	473 ± 119 ng·h/mL	393 mL/min/kg	1.17 ± 0.26 h	2.1 ± 0.37 h	-3.36%	5.83%	6.71%	0.80%	AUC(0-t) ([1]; Sprague-Dawley, rat, plasma, po, 10.8 g/kg, rats, oral FA extract, unit inferred): 473 ± 119 ng·h/mL; Short-term Stability RE [3, 15]: 7.01%; Short-term Stability RE [3, 16]: 7.89%; Free–thaw Stability RE [3, 14]: -1.72%; Free–thaw Stability RE [3, 15]: 2.21%; Free–thaw Stability RE [3, 16]: 10.46%
COc1ccc2ccc(=O)oc2c1CC1OC1(C)C (centres unmarked) [Meranzin, meranzin]	5.91 ± 1.12 L/kg	87.8 ± 22.9 ng·h/mL	84.4 ± 22.5 ng·h/mL	1200 mL/min/kg	6.48 ± 0.38 h	4.82 ± 0.76 h	6.39 ± 2.22 h	477 ± 70.2 L/kg	27.7 ± 2.85 ng/mL	2.18 ± 0.97 h⁻¹	6.39 ± 0.11 h	80.4 ± 15.5 ng·h/mL	76.9 ± 14.7 ng·h/mL	2310 mL/min/kg	~1 h	> 6.5 h	-7.37%	-10.98%	-13.52%	-2.81%	Tmax [1, 17]: 0.92 ± 0.13 h; t1/2z [1, 17]: 6.52 ± 0.63 h; Short-term Stability RE [3, 15]: -6.25%; Short-term Stability RE [3, 16]: -8.40%; Free–thaw Stability RE [3, 14]: -6.01%; Free–thaw Stability RE [3, 15]: -9.71%; Free–thaw Stability RE [3, 16]: 11.07%

Further lines, with some results ahead:

V1/F [1, 4]	AUC(0-inf) [1, 5]	AUC(0-t) [1, 5]	CL/F [1, 6]	half-life [1, 7]	MRT last [1, 8]	MRT inf [1, 8]	Vd/F [1, 8]	Cmax [1, 9]	Ka [1, 4]	t1/2α [1, 4]	AUC(0-inf) [1, 10]	AUC(0-t) [1, 10]	CL/F [1, 11]	Tmax [1, 12]	half-life [1, 13]	Long-term Stability RE [3, 14]	Long-term Stability RE [3, 15]	Long-term Stability RE [3, 16]	Short-term Stability RE [3, 14]	Structure (SMILES)	also measured
0.82 ± 0.06 L/kg	20900 ± 3010 ng·h/mL	20700 ± 3010 ng·h/mL	13.8 mL/min/kg	2.65 ± 0.18 h	9.71 ± 0.56 h	9.75 ± 0.56 h	2.06 ± 0.29 L/kg	2450 ± 226 ng/mL	1.94 ± 0.37 h⁻¹	2.63 ± 0.39 h	19700 ± 2630 ng·h/mL	19600 ± 2620 ng·h/mL	9.33 mL/min/kg	9.33 ± 1.03 h	2.56 ± 0.17 h	-9.76%	-0.84%	12.09%	-13.49%	O=C1C[C@@H](c2ccc(O)cc2)Oc2cc(O)cc(O)c21 [Naringenin, naringenin]	Shape of the plasma concentration-time profile ([1]; rats): double peaks; Short-term Stability RE [3, 15]: -3.02%; Short-term Stability RE [3, 16]: 14.81%; Free–thaw Stability RE [3, 14]: -10.94%; Free–thaw Stability RE [3, 15]: -4.36%; Free–thaw Stability RE [3, 16]: 8.14%
7.17 ± 1.40 L/kg	4420 ± 724 ng·h/mL	4350 ± 705 ng·h/mL	68.2 mL/min/kg	3.86 ± 0.32 h	11.4 ± 0.37 h	11.7 ± 0.42 h	12.2 ± 1.67 L/kg	425 ± 11.1 ng/mL	3.17 ± 0.93 h⁻¹	3.47 ± 0.51 h	4340 ± 326 ng·h/mL	4300 ± 315 ng·h/mL	41.7 mL/min/kg	9.67 ± 0.82 h	3.4 ± 0.46 h	-7.81%	5.03%	-8.58%	-13.50%	COc1ccc([C@@H]2CC(=O)c3c(O)cc(O)cc3O2)cc1O [Hesperetin, hesperetin]	Shape of the plasma concentration-time profile ([1]; rats): double peaks; Short-term Stability RE [3, 15]: 4.10%; Short-term Stability RE [3, 16]: -9.20%; Free–thaw Stability RE [3, 14]: -12.68%; Free–thaw Stability RE [3, 15]: 7.78%; Free–thaw Stability RE [3, 16]: -10.70%
